Patent US20050101482A1, “Novel adsorbent” (priority 2001, published 2005)

What was measured:
[1] = orally ingested into human beings; cited from earlier work
[2] = orally ingested to a rabbit; cited from earlier work
[3] = in human beings; cited from earlier work
[4] = Concentration of Erythromycin in the blood of rabbits; type: in vivo; conditions: rabbit, 1.5 hours after the oral ingestion of 40 mg per head, groups taking and not taking the adsorbent alike
Procedure: The symptom of diarrhea was manifested in 100% of the rabbits of the group not using the adsorbent and 0% of the rabbits of the group using the adsorbent. At this time, in the group of rabbits taking the adsorbent and the group of rabbits not taking the adsorbent alike, the concentration of Erythromycin in the blood measured 1.5 hours after the oral ingestion was invariably in the range of 0.12-0.13 μg/ml.

For OCCOCCO [Diethylene glycol], the “toxicity LD50” value [1] is listed as 1000 mg/kg.
In the case of C[C@H]1CC[C@@H]2[C@@H](C)[C@H]3[C@H](C[C@H]4[C@@H]5CC=C6C[C@@H](O[C@@H]7O[C@H](CO)[C@H](O)[C@H](O[C@@H]8O[C@H](CO)[C@@H](O)[C@H](O)[C@H]8O)[C@H]7O[C@H]7O[C@@H](C)[C@H](O)[C@@H](O)[C@H]7O)CC[C@]6(C)[C@H]5CC[C@]34C)N2C1 [Solanine], the LD50 [2] is given as 450 mg/kg and the concentration causing poisoning [3] is given as 0.2 to 0.4 g.
For CC[C@H]1OC(=O)[C@H](C)[C@@H](O[C@H]2C[C@@](C)(OC)[C@@H](O)[C@H](C)O2)[C@H](C)[C@@H](O[C@@H]2O[C@H](C)C[C@H](N(C)C)[C@H]2O)[C@](C)(O)C[C@@H](C)C(=O)[C@H](C)[C@@H](O)[C@]1(C)O [Erythromycin], the concentration at 1.5 h [4] was 120 to 130 ng/mL.
